Results as given in EP4653437A2 (Innovo Therapeutics Inc., priority 2023, dated 2024).

Columns and labels:
human 15-PGDH = target: T1, human 15-PGDH (Homo sapiens, UniProt P15428); experiment: Evaluation of 15-PGDH inhibitory activity (fluorescence enzyme assay, NAD+/PGE2); assay type: biochemical; details: human 15-PGDH enzyme, fluorescence Vmax
T1 construct: purchased R&D System 5660-DH
T1 sequence (P15428 1-266): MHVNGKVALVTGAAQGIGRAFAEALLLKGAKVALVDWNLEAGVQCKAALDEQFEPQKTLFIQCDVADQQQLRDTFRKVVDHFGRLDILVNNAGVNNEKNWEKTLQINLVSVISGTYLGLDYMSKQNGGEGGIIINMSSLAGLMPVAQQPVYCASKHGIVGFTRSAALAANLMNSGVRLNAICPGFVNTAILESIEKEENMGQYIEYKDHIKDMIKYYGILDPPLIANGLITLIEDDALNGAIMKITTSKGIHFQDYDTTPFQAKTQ
Description: 15-PGDH inhibition activity of Example compounds was measured as follows. 6.7 ng of human 15-PGDH (R&D System# 5660-DH) enzyme (10 µL) was added to a black 96 well plate, 60 µL of buffer (50 mM Tris-HCl, pH 7.5, 0.01% Tween 20) was added, and 10 µL of 200 µM β-Nicotinamide adenine dinucleotide sodium salt (Sigma, Cat# N0632-5G) was added. 10 µL of (10x) compound solution in DMSO was added and reacted for 10 minutes at room temperature.

A549 cells = experiment: Measurement of PGE2-increasing activity in A549 cells (IL-1β stimulated, PGE2 quantified in supernatant); assay type: cell-based; details: Homo sapiens, 24 h; concentration of 1 µM of each compound; IL-1β treated A549 cells; read-out: Increased PGE2 production in A549 cells
Outline: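 PGE2 secreted into the supernatant was measured by immunoassay 24 h after treatment. Before treatment, A549 cells were cultured 24 h in 10% FBS F12K, washed, and placed in serum-free medium containing compound (DMSO 0.1% final) plus or minus IL-1β, incubated at 37 °C, 5% CO2.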

| SMILES | IC50 (human 15-PGDH) [nM] | fold induction at 1 µM (A549 cells) |
| --- | --- | --- |
| COc1cccc(Sc2cccc3c(C(=O)N4CCCCC4)cnn23)c1 [Example 194, (7-((3-methoxyphenyl)thio)pyrazolo[1,5-a]pyridin-3-yl)(piperidin-1-yl)methanone] | ≤ 100 | < 1.5 |
| O=C1NCCc2ncc(-c3cccc4c(C(=O)N5CCCCC5)cnn34)cc21 [Example 195, 3-(3-(piperidine-1-carbonyl)pyrazolo[1,5-a]pyridin-7-yl)-7,8-dihydro-1,6-naphthyridin-5(6H)-one] | ≤ 100 | > 1.5 |
| CN(C)CC(=O)Nc1cncc(-c2cccc3c(C(=O)N4CCCCC4)cnn23)c1 [Example 196, 2-(dimethylamino)-N-(5-(3-(piperidine-1-carbonyl)pyrazolo[1,5-a]pyridin-7-yl)pyridin-3-yl)acetamide] | ≤ 100 | > 1.5 |
| COCCC(=O)Nc1cncc(-c2cccc3c(C(=O)N4CCCCC4)cnn23)c1 [Example 197] | ≤ 100 | > 1.5 |
| O=C1CC(C(=O)Nc2cncc(-c3cccc4c(C(=O)N5CCCCC5)cnn34)c2)CCN1 (centres unmarked) [Example 198, 2-oxo-N-(5-(3-(piperidine-1-carbonyl)pyrazolo[1,5-a]pyridin-7-yl)pyridin-3-yl)piperidine-4-carboxamide] | ≤ 100 | > 1.5 |
| CN1CCc2ncc(-c3cccc4c(C(=O)N5CCCCC5)cnn34)cc2C1=O [Example 199, 6-methyl-3-(3-(piperidine-1-carbonyl)pyrazolo[1,5-a]pyridin-7-yl)-7,8-dihydro-1,6-naphthyridin-5(6H)-one] | ≤ 100 | > 1.5 |
| O=C(NC1CNC1)c1cncc(-c2cccc3c(C(=O)N4CCCCC4)cnn23)c1 [Example 200, N-(azetidin-3-yl)-5-(3-(piperidine-1-carbonyl)pyrazolo[1,5-a]pyridin-7-yl)nicotinamide] | ≤ 100 | > 1.5 |
| CS(=O)(=O)NC(=O)c1cncc(-c2cccc3c(C(=O)N4CCCCC4)cnn23)c1 [Example 201, N-methylsulfonyl-5-[3-(piperidine-1-carbonyl)pyrazolo[1,5-a]pyridin-7-yl]pyridine-3-carboxamide] | ≤ 100 | > 1.5 |
| CN1CC(NC(=O)c2cncc(-c3cccc4c(C(=O)N5CCCCC5)cnn34)c2)C1 [Example 202, N-(1-methylazetidin-3-yl)-5-[3-(piperidine-1-carbonyl)pyrazolo[1,5-a]pyridin-7-yl]pyridine-3-carboxamide] | ≤ 100 | > 1.5 |
| O=C1CN(C(=O)c2cncc(-c3cccc4c(C(=O)N5CCCCC5)cnn34)c2)CCN1 [Example 203, 4-[5-[3-(piperidine-1-carbonyl)pyrazolo[1,5-a]pyridin-7-yl]pyridine-3-carbonyl]piperazin-2-one] | ≤ 100 | > 1.5 |
| O=C1CN(C(=O)c2cncc(-c3cccc4c(C(=O)N5CCCCC5)cnn34)c2)CC(=O)N1 [Example 204, 4-[5-[3-(piperidine-1-carbonyl)pyrazolo[1,5-a]pyridin-7-yl]pyridine-3-carbonyl]piperazine-2,6-dione] | ≤ 100 | < 1.5 |
| N#Cc1ncc(-c2cccc3c(C(=O)N4CCCCC4)cnn23)cc1F [Example 205, 3-fluoro-5-[3-(piperidine-1-carbonyl)pyrazolo[1,5-a]pyridin-7-yl]pyridine-2-carbonitrile] | ≤ 100 | > 1.5 |
| O=C(c1cnn2c(-c3ccc(N4CCC4)nc3)cccc12)N1CCCCC1 [Example 206, (7-(6-(azetidin-1-yl)pyridin-3-yl)pyrazolo[1,5-a]pyridin-3-yl)(piperidin-1-yl)methanone] | ≤ 100 | > 1.5 |
| Cn1cnc(-c2cccc3c(C(=O)N4CCCCC4)cnn23)cc1=O [Example 207, 3-methyl-6-(3-(piperidine-1-carbonyl)pyrazolo[1,5-a]pyridin-7-yl)pyrimidin-4(3H)-one] | ≤ 100 | < 1.5 |
| O=C(c1cnn2c(-c3ccc(N4CC(F)C4)nc3)cccc12)N1CCCCC1 [Example 208, (7-(6-(3-fluoroazetidin-1-yl)pyridin-3-yl)pyrazolo[1,5-a]pyridin-3-yl)(piperidin-1-yl)methanone] | ≤ 100 | > 1.5 |
| O=C(c1cnn2c(-c3ccc(N4CC(F)(F)C4)nc3)cccc12)N1CCCCC1 [Example 209, (7-(6-(3,3-difluoroazetidin-1-yl)pyridin-3-yl)pyrazolo[1,5-a]pyridin-3-yl)(piperidin-1-yl)methanone] | ≤ 100 | > 1.5 |
| O=C(c1cnn2c(-c3ccc(N4CC(O)C4)nc3)cccc12)N1CCCCC1 [Example 210, (7-(6-(3-hydroxyazetidin-1-yl)pyridin-3-yl)pyrazolo[1,5-a]pyridin-3-yl)(piperidin-1-yl)methanone] | ≤ 100 | > 1.5 |
| O=C1NCCc2ccc(Nc3cccc4c(C(=O)N5CCCCC5)cnn34)cc21 [Example 211, 7-[[3-(piperidine-1-carbonyl)pyrazolo[1,5-a]pyridin-7-yl]amino]-3,4-dihydro-2H-isoquinolin-1-one] | ≤ 100 | > 1.5 |
| O=C1NCc2ccc(Nc3cccc4c(C(=O)N5CCCCC5)cnn34)cc21 [Example 212, 6-[[3-(piperidine-1-carbonyl)pyrazolo[1,5-a]pyridin-7-yl]amino]isoindolin-1-one] | ≤ 100 | > 1.5 |
| O=C(c1ccc(-c2cccc3c(C(=O)N4CCCCC4)cnn23)cn1)N1CC(F)C1 [Example 213, (3-fluoroazetidin-1-yl)-[5-[3-(piperidine-1-carbonyl)pyrazolo[1,5-a]pyridin-7-yl]-2-pyridyl]methanone] | ≤ 100 | > 1.5 |
| O=C(c1ccc(-c2cccc3c(C(=O)N4CCCCC4)cnn23)cn1)N1CC2(CCC2)C1 [Example 214, 2-azaspiro[3.3]heptan-2-yl-[5-[3-(piperidine-1-carbonyl)pyrazolo[1,5-a]pyridin-7-yl]-2-pyridyl]methanone] | ≤ 100 | > 1.5 |
| O=C(c1cnn2c(-c3ccc(N4CC5CCC4C5)nc3)cccc12)N1CCCCC1 (centres unmarked) [Example 215, (7-(6-(2-azabicyclo[2.2.1]heptan-2-yl)pyridin-3-yl)pyrazolo[1,5-a]pyridin-3-yl)(piperidin-1-yl)methanone] | ≤ 100 | > 1.5 |
| O=C(c1cnn2c(-c3ccc(N4CC5CCC4CC5)nc3)cccc12)N1CCCCC1 [Example 216, (7-(6-(2-azabicyclo[2.2.2]octan-2-yl)pyridin-3-yl)pyrazolo[1,5-a]pyridin-3-yl)(piperidin-1-yl)methanone] | ≤ 100 | > 1.5 |
| O=C(c1cnn2c(-c3ccc(N4C5CCC4CC5)nc3)cccc12)N1CCCCC1 [Example 217] | ≤ 100 | > 1.5 |
| CN(C)C1CN(c2ccc(-c3cccc4c(C(=O)N5CCCCC5)cnn34)cn2)C1 [Example 218, (7-(6-(3-(dimethylamino)azetidin-1-yl)pyridin-3-yl)pyrazolo[1,5-a]pyridin-3-yl)(piperidin-1-yl)methanone] | ≤ 100 | > 1.5 |
